Source: patent publication US8999962B2, “Method for increasing bone density and/or reducing any osteochondral defects in an animal and a composition including vitamin K” (priority 2008, dated 2015)

Assays:
[1] = of the apparent concentration in the leaf, cited from earlier work
[2] = Degradation of K1 by sunlight; format: physicochemical; conditions: after 4 hours exposure to bright sunlight
Procedure: Degradation of K1 begins rapidly as soon as photosynthesis ceases and the rate of degradation is directly related to the intensity of UVB. Pure K1 in solution is denatured in 20 minutes in direct sunlight. […] Aside from the degradation of K1, a further problem herbivores have is that the concentration of other fat soluble nutrients such as lutein in green vegetation may be up to 100 times higher than the concentration of vitamin K1. Lutein competes with the absorption and metabolism of vitamin K1 (see Mitchell G. V, Cook K. K., Jenkins M. Y, Grundel E International Journal of Vitamin and Nutrition Research 2001, 71: 30) as well as high levels of Vitamin E (see Tovar A, Ameho C. K. Blumberg J. B., Peterson J. W, Smith D, Booth S. Nutrition And Metabolism 2006, 3:29) and therefore with the combination of UV, the plant matrix and competition with other fat soluble vitamins, the actual amount of vitamin K1 available is much less than quoted or expected. It follows that the vitamin K requirement for animals and humans has been grossly underestimated resulting in vitamin K deficiency.
It is known that Vitamin K1 (K1) is rapidly degraded by sunlight (UV). For vitamin K1 to be a stable component of a vitamin product, it is necessary to protect it using physical and/or chemical means. It was shown that a loss of approximately 20% of K1 occurred after 4 hours exposure to bright sunlight.

[3] = pure K1 in solution, direct sunlight; cited from earlier work

loss of K1 [2]: approximately 20%
Compound: CC1=C(C/C=C(\C)CCC[C@H](C)CCC[C@H](C)CCCC(C)C)C(=O)c2ccccc2C1=O [Example K1, Phylloquinone]
natural bioavailability when consumed with fat ([1]; consumed with fat): 15-16% | natural bioavailability [1]: 8-10% | time in which pure K1 is denatured [3]: 20 min
